Data on 51 molecules can be found in patent US20260209218A1, “3-PHENYLQUINAZOLINONES AS NOVEL ANTI-CANCER THERAPY” (HELMHOLTZ ZENTRUM MÜNCHEN - DEUTSCHES FORSCHUNGSZENTRUM FÜR …, priority 2022, published 2026).

Bounds are passed on as bounds.

The experiment deals with T1, hFSP1 (Homo sapiens, UniProt Q9BRQ8).
T1 construct: expressed in transfected cells; host or cells: Gpx4 KO isogenic fibroblasts (Pfa1, mouse) overexpressing hFSP1
T1 sequence (Q9BRQ8 1-373): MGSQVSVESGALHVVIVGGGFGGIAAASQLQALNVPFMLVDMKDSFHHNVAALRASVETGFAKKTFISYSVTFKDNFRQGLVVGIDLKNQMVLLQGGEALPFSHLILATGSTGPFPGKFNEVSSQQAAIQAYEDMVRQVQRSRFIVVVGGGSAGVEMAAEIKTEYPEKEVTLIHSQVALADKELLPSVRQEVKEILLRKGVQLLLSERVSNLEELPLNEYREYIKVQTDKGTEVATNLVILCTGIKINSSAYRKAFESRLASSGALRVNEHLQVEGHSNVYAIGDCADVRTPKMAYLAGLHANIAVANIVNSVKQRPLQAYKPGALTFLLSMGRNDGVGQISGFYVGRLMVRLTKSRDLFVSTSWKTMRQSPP
Briefly: Dose-response of screening hits, cell survival by Aquabluer in hFSP1 GPX4 KO cells. The experiment is classed as cell-based. Particulars: FSP1 overexpressing cells lacking GPX4. On the procedure:
To identify new small molecule inhibitors that induce ferroptosis in FSP1 overexpressing cells lacking GPX4, hFSP1 GPX4 KO as well as FSP1 GPX4 wild type (WT) isogenic fibroblasts were screened using a subtractive high throughput screening (HTS) approach. As such, both cell lines were plated in parallel and screened against HMGU libraries at a fixed concentration of 10 μM. Cell survival was evaluated using the LIVE/DEAD assay Aquabluer. The percentage (%) of viable cells was determined for both wild type (WT) and knockout (KO) cell lines. Hits were considered as compounds that induce ferroptosis in KO but not in WT cells. Subsequently, positive hits were assayed in a dose-response manner to establish EC50 values of respective compounds (see Table 2).
Consider `CCOc1ccc(CC(=O)Nc2ccc(-n3c(C)nc4ccccc4c3=O)cc2)cc1` [Compound 2], for which the EC50 (in general, the midpoint of the concentration-response curve) was over 1000 nM. For the molecule `COc1cc(C(=O)Nc2ccc(-n3c(C)nc4ccccc4c3=O)cc2)cc(OC)c1OC` [Compound 3], the EC50 was over 1000 nM. Regarding `COc1ccc(CC(=O)Nc2ccc(-n3c(C)nc4ccccc4c3=O)cc2)cc1` [Compound 4], the EC50 is over 1000 nM. Turning to `COc1ccc(CC(=O)Nc2cccc(-n3c(C)nc4ccccc4c3=O)c2)cc1` [Compound 5], the EC50 is over 1000 nM. For the molecule `COc1cc(C(=O)Nc2cccc(-n3c(C)nc4ccccc4c3=O)c2)cc(OC)c1OC` [Compound 6], the EC50 was under 1000 nM. The figure for `COc1ccc(CC(=O)Nc2ccc(-n3c(C)nc4ccccc4c3=O)cc2)cc1Cl` [Compound 7] is under 1000 nM; for `COc1cccc(CC(=O)Nc2ccc(-n3c(C)nc4ccccc4c3=O)cc2)c1` [Compound 8] it is over 1000 nM; for `COc1cc(CC(=O)Nc2ccc(-n3c(C)nc4ccccc4c3=O)cc2C)cc(OC)c1OC` [Compound 9] it is under 1000 nM.

On to `CCOc1cc(C(=O)Nc2ccc(-n3c(C)nc4ccccc4c3=O)cc2)cc(OCC)c1OCC` [Compound 10], for which the EC50 was under 1000 nM.

Take `COc1ccc(CC(=O)Nc2ccc3nc(C)n(-c4ccc(F)cc4)c(=O)c3c2)cc1OC` [Compound 11]: the EC50 was over 1000 nM. With `CCOc1ccc(CC(=O)Nc2ccc(-n3c(C)nc4ccccc4c3=O)cc2C)cc1` [Compound 12], the EC50 was under 1000 nM. With `Cc1ccc(CC(=O)Nc2ccc(-n3c(C)nc4ccccc4c3=O)cc2)cc1` [Compound 14], the EC50 is under 1000 nM. Regarding `Cc1cccc(CC(=O)Nc2ccc(-n3c(C)nc4ccccc4c3=O)cc2)c1` [Compound 15], the EC50 was under 1000 nM. In the case of `Cc1ccccc1CC(=O)Nc1ccc(-n2c(C)nc3ccccc3c2=O)cc1` [Compound 16] it was over 1000 nM.

Take `Cc1nc2ccccc2c(=O)n1-c1ccc(NC(=O)Cc2ccc(F)cc2)cc1` [Compound 17]: the EC50 was over 1000 nM.

As to `Cc1nc2ccccc2c(=O)n1-c1ccc(NC(=O)Cc2ccc(Cl)cc2)cc1` [Compound 18], the concentration giving a half-maximal response (EC50) is under 1000 nM. With `CCC(C(=O)Nc1ccc(-n2c(C)nc3ccccc3c2=O)cc1)c1ccccc1` (stereo not drawn) [Compound 19], the EC50 is under 1000 nM. For the molecule `Cc1nc2ccccc2c(=O)n1-c1ccc(NC(=O)Cc2ccccc2Cl)cc1` [Compound 20], the EC50 is over 1000 nM.

For the molecule `Cc1ccc(CC(=O)Nc2ccc(-n3c(C)nc4ccccc4c3=O)cc2C)cc1` [Compound 21], the EC50 was over 1000 nM. For `Cc1cccc(CC(=O)Nc2ccc(-n3c(C)nc4ccccc4c3=O)cc2C)c1` [Compound 22], the EC50 is over 1000 nM.

Turning to `Cc1ccccc1CC(=O)Nc1ccc(-n2c(C)nc3ccccc3c2=O)cc1C` [Compound 23], the EC50 is over 1000 nM.

Turning to `Cc1cc(-n2c(C)nc3ccccc3c2=O)ccc1NC(=O)Cc1ccc(F)cc1` [Compound 24], the 50% effective concentration (EC50) was over 1000 nM. With `COc1ccc(CC(=O)Nc2ccc(-n3c(C)nc4ccccc4c3=O)cc2C)cc1` [Compound 25], the EC50 was over 1000 nM. Turning to `Cc1cc(-n2c(C)nc3ccccc3c2=O)ccc1NC(=O)Cc1ccc(Cl)cc1` [Compound 26], the EC50 was under 1000 nM.

`Cc1nc2ccccc2c(=O)n1-c1ccc(NC(=O)Cc2c(F)cccc2Cl)cc1` [Compound 27]: the EC50 was under 1000 nM.

Regarding `COc1cccc(CC(=O)Nc2ccc(-n3c(C)nc4ccccc4c3=O)cc2C)c1` [Compound 28], the EC50 was over 1000 nM. For the molecule `Cc1cc(-n2c(C)nc3ccccc3c2=O)ccc1NC(=O)Cc1ccccc1F` [Compound 29], the EC50 was over 1000 nM. The figure for `Cc1cc(-n2c(C)nc3ccccc3c2=O)ccc1NC(=O)Cc1ccccc1Cl` [Compound 30] is over 1000 nM; for `COc1ccc(CC(=O)Nc2ccc(-n3c(C)nc4ccccc4c3=O)cc2)c(Cl)c1` [Compound 31] it is under 1000 nM; for `Cc1cc(-n2c(C)nc3ccccc3c2=O)ccc1NC(=O)Cc1c(F)cccc1Cl` [Compound 32] it is under 1000 nM. On to `COc1ccc(CC(=O)Nc2ccc(-n3c(C)nc4ccccc4c3=O)cc2C)cc1Cl` [Compound 33], for which the EC50 is under 1000 nM. In the case of `COc1ccc(CC(=O)Nc2ccc(-n3c(C)nc4ccccc4c3=O)cc2C)c(Cl)c1` [Compound 34] it was under 1000 nM; in that of `COc1cc(CC(=O)Nc2ccc(-n3c(C(F)(F)F)nc4ccccc4c3=O)cc2)cc(OC)c1OC` [Compound 40], under 1000 nM. Consider `COc1cc(CC(=O)Nc2ccc(-n3c(C(F)F)nc4ccccc4c3=O)cc2)cc(OC)c1OC` [Compound 41], for which the EC50 was over 1000 nM.

Turning to `COc1cc(CC(=O)Nc2ccc(-n3c(CF)nc4ccccc4c3=O)cc2)cc(OC)c1OC` [Compound 42], the concentration giving a half-maximal response (EC50) is under 1000 nM. `COc1cc(CC(=O)Nc2ccc(-n3c(C)nc4cc(F)c(F)cc4c3=O)cc2)cc(OC)c1OC` [Compound 46]: the EC50 is under 100 nM. In the case of `COc1cc(CC(=O)Nc2ccc(-n3c(C)nc4cnccc4c3=O)cc2)cc(OC)c1OC` [Compound 49] it was over 1000 nM; in that of `COc1cc(CC(=O)Nc2ccc(-n3c(C)nc4ccncc4c3=O)cc2)cc(OC)c1OC` [Compound 50], over 1000 nM.

`COc1cc(CC(=O)Nc2cnc(-n3c(C)nc4ccccc4c3=O)cn2)cc(OC)c1OC` [Compound 63]: the EC50 was over 1000 nM. For `Cc1nc2ccccc2c(=O)n1-c1ccc(NC(=O)Cc2ccc3c(c2)CCC3)cc1` [Compound 64], the 50% effective concentration (EC50) was under 100 nM. For `COc1cc(CC(=O)Nc2ccc(-n3c(C)nc4sccc4c3=O)cc2)cc(OC)c1OC` [Compound 69], the EC50 is under 1000 nM. Turning to `COc1cc(CC(=O)Nc2ccc(-n3c(CO)nc4ccccc4c3=O)cc2)cc(OC)c1OC` [Compound 71], the EC50 was over 1000 nM. Regarding `Cc1nc2ccccc2c(=O)n1-c1ccc(NS(=O)(=O)Cc2ccccc2)cc1` [Compound 72], the EC50 was over 1000 nM. For `Cc1nc2ccccc2c(=O)n1-c1ccc(N(C)S(=O)(=O)Cc2ccccc2)cc1` [Compound 73], the EC50 is over 1000 nM. In the case of `Cc1cc(CC(=O)Nc2ccc(-n3c(C)nc4cc(F)c(F)cc4c3=O)cc2)cc(C)c1C` [Compound 75] it was under 100 nM; in that of `Cc1nc2cc(F)c(F)cc2c(=O)n1-c1ccc(NC(=O)Cc2cc(F)c(F)c(F)c2)cc1` [Compound 76], under 1000 nM. The figure for `Cc1nc2cc(F)c(F)cc2c(=O)n1-c1ccc(NC(=O)Cc2ccc3c(c2)CCC3)cc1` [Compound 77] is under 100 nM; for `Cc1nc2cc(F)c(F)cc2c(=O)n1-c1ccc(NC(=O)Cc2ccccn2)cc1` [Compound 83] it is over 1000 nM.

For `Cc1nc2cc(F)c(F)cc2c(=O)n1-c1ccc(NC(=O)Cc2cccnc2)cc1` [Compound 84], the EC50 was over 1000 nM. Consider `Cc1cc(CC(=O)Nc2ccc(-n3c(C)nc4cc(F)c(F)cc4c3=O)cc2)cc(C)n1` [Compound 85], for which the EC50 was over 1000 nM. As to `Cc1nc2cc(F)c(F)cc2c(=O)n1-c1ccc(NC(=O)Cc2cc(C(F)(F)F)cc(C(F)(F)F)c2)cc1` [Compound 86], the EC50 is under 100 nM.
